Assay results published in patent publication US8431577B2, “Crystalline form of eszopiclone, composition, preparation and uses thereof” (Tianjin Tasly Group Co., Ltd., priority 2008, dated 2013).

Key:
[1] = test system: Male Long-Evans rats; assay: Test of spontaneous activity; assay type: in vivo, rat; details: 10 mg/Kg body weight
Procedure: (§1) Male Long-Evans rats (weighing 250˜275 g) were adopted, divided into 3 groups, and fed in a 12-hour light-dark cycle. After one week of feeding, the experiment was carried out.
Horizontal activity of rats had been observed under an open circumstance to measure a total spontaneous activity. Respectively, all animals were placed into 8 black light-proof rooms, and their spontaneous activities were monitored by an infrared sensor mounted on the wall at equal intervals to record once every 10 minutes for 120 minutes.
The crystalline form of S-zopiclone was administrated to the animals at a dose of 10 mg/Kg body weight. 30˜60 minutes after administration, the inhibitory effect on the locomotor ability reached a peak, and disappeared after 2 hours.

[2] = test system: Male Long-Evans rats; assay: Maze test; assay type: in vivo, rat
Procedure: as §1

[3] = Accelerated stability test; details: 40±2° C., RH 75±5%
Procedure: The crystalline form of S-zopiclone was packaged in packages simulated the commercial ones, and placed in a thermostat container (temperature: 40±2° C., RH:75±5%) for 6 months. The specimens were sampled on the 1st, 2nd, 3rd and 6th month respectively to measure their stability in accordance with the key stability-relevant items.

[4] = Long-term reserved-sample stability test; assay type: physicochemical; details: room temperature
Text: The crystalline form of S-zopiclone was packaged in packages simulated the commercial ones, and placed at room temperature. The specimens were sampled on the 3rd, 6th, 9th, 12th, 18th, 24th, and 36th month respectively to measure their stability in accordance with the key stability-relevant items.

[5] = Crystal transformation under the stability tests (X-ray diffraction); assay type: physicochemical; details: under all stability tests (60° C., RH 92.5%, strong light, accelerated, long-term)
[6] = Pharmacokinetic study of single oral administration in healthy volunteers; assay type: in vivo, human
Procedure: Evaluation of pharmacokinetics: according to the results of phase I clinical tolerance trial and the pre-designed therapeutic dose of phase II clinical trial, a high dose of 11. 25 mg/kg BW (body weight) can be tolerated by all volunteers in tolerance test, three different dose groups had been set as follows: low dose group, moderate dose group and high dose group were 3, 6 and 12 mg/kg BW, respectively. Three-way crossover Latin square design was used. All subjects were randomly divided into 3 test groups, and the tested drug at different doses was administrated to the subjects when performing each test. Thus, after 3 tests, each subject had been administrated with the testing drug at high, moderate and low dose by following the Latin square design procedure. The interval between two tests was 2 weeks.
After a single oral administration of the tested drug, 6 ml anticoagulant heparin venous blood samples were collected at 0th (immediately before administration), 15th minute, 30th minute, 45th minute, 60th minute, 1.5th hour, 2nd hour, 3rd hour, 4th hour, 6th hour, 8th hour, 12th hour, 16th hour and 24th hour respectively to determine the concentration of S-zopiclone. By HPLC, the plasma drug concentration of each subject had been determined at different time-points to give a concentration-time curve. The main pharmacokinetic parameters of the subjects had been calculated, including AUC, Cmax, Tmax, AUC0˜α, AUC0-t and t1/2, etc.
The crystalline form of S-zopiclone was prepared into coated tablets (3 mg S-zopiclone/tablet) in accordance with Example 1 and Example 9, single orally administrated.
Pharmacokinetic indices: the plasma drug concentration had been determined immediately before administration and at different time-points after administration of the drug to give a concentration-time curve. The main pharmacokinetic parameters had been calculated, including Cmax, Tmax, AUC0˜α, AUC0-t and t1/2, etc.
Pharmacokinetic: 3P97 statistical analysis software had been applied to calculate the main pharmacokinetic parameters.

[7] = Safety after single oral administration in healthy volunteers; assay type: in vivo, human
Procedure: Safety indices: a series of indices were measured when conducting screening and 24 hours after administration, including vital signs, physical examination, ECG and laboratory test. During the test, adverse event was recorded on time.
Safety: meaningful clinical safety indices are tabulated according to the type and the frequency thereof.
Bitter taste in mouth was reported as severe adverse reaction by a majority of subjects (25%˜40%), and another adverse reaction was dizziness and headache. […] Two subjects in the group of the dose of 12 mg/kg BW experienced the state of delirium, including talkativeness, hyperactivity and unconsciousness. […] Within 12 hours after administration, all adverse reactions disappeared without special treatment.

[8] = 3 mg single oral administration
[9] = 6 mg single oral administration
[10] = 12 mg single oral administration

**Q.** With `CN1CCN(C(=O)O[C@H]2c3nccnc3C(=O)N2c2ccc(Cl)cn2)CC1` [crystalline form of S-zopiclone, (+)-(S)-(4-methylpiperazine-1-carboxylate)(6-(5-chloropyridinyl-2-yl)-7-carbonyl-6,7-dihydro-5-H-pyrrolo[3,4-b]pyrazin-5-yl ester)] as the compound, how does the “time after which inhibitory effect on the locomotor ability disappeared” value [1] read?
**A.** 2 h

**Q.** What about the “residence time in the open arm” value ([2]; 5 mg/Kg body weight) of the same compound?
**A.** significantly increase

**Q.** What about the “effect on total entries, open arm entries and close arm entries” value ([2]; 10 mg/Kg body weight) of the same compound?
**A.** significant effect

**Q.** And the “residence time in the open arm” value ([2]; 10 mg/Kg body weight)?
**A.** significantly increase

**Q.** And the “stability (character, melting point, related substances versus 0th day)” value ([3]; 6 months of accelerated test)?
**A.** remained stable

**Q.** And the “Content (%)” value ([3]; month 0)?
**A.** 100.06%

**Q.** What about the “Related substances (%) Levozopiclone” value ([3]; month 0) of the same compound?
**A.** 0.06%

**Q.** And the “Related substances (%) Other impurities” value ([3]; month 0)?
**A.** 0.09%

**Q.** And the “Content (%)” value ([3]; month 1)?
**A.** 100.13%

**Q.** And the “Related substances (%) Levozopiclone” value ([3]; month 1)?
**A.** 0.07%

**Q.** And the “Related substances (%) Other impurities” value ([3]; month 1)?
**A.** 0.10%

**Q.** And the “Content (%)” value ([3]; month 2)?
**A.** 100.02%

**Q.** And the “Related substances (%) Levozopiclone” value ([3]; month 2)?
**A.** 0.07%

**Q.** And the “Related substances (%) Other impurities” value ([3]; month 2)?
**A.** 0.12%

**Q.** And the “Content (%)” value ([3]; month 3)?
**A.** 99.91%

**Q.** What about the “Related substances (%) Levozopiclone” value ([3]; month 3) of the same compound?
**A.** 0.05%

**Q.** And the “Related substances (%) Other impurities” value ([3]; month 3)?
**A.** 0.12%

**Q.** What about the “Content (%)” value ([3]; month 6) of the same compound?
**A.** 99.73%

**Q.** What about the “Related substances (%) Levozopiclone” value ([3]; month 6) of the same compound?
**A.** 0.06%

**Q.** What about the “Related substances (%) Other impurities” value ([3]; month 6) of the same compound?
**A.** 0.09%

**Q.** What about the “stability (character, melting point, related substances versus 0th day)” value ([4]; long-term reserved-sample test, up to 36 months) of the same compound?
**A.** remained stable

**Q.** What about the “Content (%)” value ([4]; month 0) of the same compound?
**A.** 100.06%

**Q.** What about the “Related substances (%) Levozopiclone” value ([4]; month 0) of the same compound?
**A.** 0.06%

**Q.** And the “Related substances (%) Other impurities” value ([4]; month 0)?
**A.** 0.09%

**Q.** And the “Content (%)” value ([4]; month 3)?
**A.** 100.3%

**Q.** And the “Related substances (%) Levozopiclone” value ([4]; month 3)?
**A.** 0.06%

**Q.** And the “Related substances (%) Other impurities” value ([4]; month 3)?
**A.** 0.11%

**Q.** What about the “Content (%)” value ([4]; month 6) of the same compound?
**A.** 100.21%

**Q.** What about the “Related substances (%) Levozopiclone” value ([4]; month 6) of the same compound?
**A.** 0.06%

**Q.** What about the “Related substances (%) Other impurities” value ([4]; month 6) of the same compound?
**A.** 0.14%

**Q.** And the “Content (%)” value ([4]; month 9)?
**A.** 100.16%

**Q.** What about the “Related substances (%) Levozopiclone” value ([4]; month 9) of the same compound?
**A.** 0.04%

**Q.** What about the “Related substances (%) Other impurities” value ([4]; month 9) of the same compound?
**A.** 0.14%

**Q.** What about the “Content (%)” value ([4]; month 12) of the same compound?
**A.** 100.08%

**Q.** And the “Related substances (%) Levozopiclone” value ([4]; month 12)?
**A.** 0.06%

**Q.** And the “Related substances (%) Other impurities” value ([4]; month 12)?
**A.** 0.14%

**Q.** And the “Content (%)” value ([4]; month 18)?
**A.** 100.12%

**Q.** What about the “Related substances (%) Levozopiclone” value ([4]; month 18) of the same compound?
**A.** 0.07%

**Q.** And the “Related substances (%) Other impurities” value ([4]; month 18)?
**A.** 0.17%

**Q.** What about the “Content (%)” value ([4]; month 24) of the same compound?
**A.** 99.80%

**Q.** And the “Related substances (%) Levozopiclone” value ([4]; month 24)?
**A.** 0.07%

**Q.** And the “Related substances (%) Other impurities” value ([4]; month 24)?
**A.** 0.18%

**Q.** What about the “Content (%)” value ([4]; month 36) of the same compound?
**A.** 100.06%

**Q.** What about the “Related substances (%) Levozopiclone” value ([4]; month 36) of the same compound?
**A.** 0.07%

**Q.** What about the “Related substances (%) Other impurities” value ([4]; month 36) of the same compound?
**A.** 0.20%

**Q.** And the “phenomenon of crystal transformation” value [5]?
**A.** had not been observed

**Q.** And the “AUC0-∞” value [6, 8]?
**A.** 259.66 ± 92.58 µg/h/L

**Q.** What about the Cmax [6, 8] of the same compound?
**A.** 33.96 ± 8.63 ng/mL

**Q.** And the Tmax [6, 8]?
**A.** 1.50 ± 0.66 h

**Q.** And the plasma clearance [6, 8]?
**A.** 14.10 ± 4.5 L/h

**Q.** What about the t1/2 [6, 8] of the same compound?
**A.** 6.98 ± 0.99 h

**Q.** And the “AUC0-∞” value [6, 9]?
**A.** 404.21 ± 73.32 µg/h/L

**Q.** What about the Cmax [6, 9] of the same compound?
**A.** 60.94 ± 11.44 ng/mL

**Q.** And the Tmax [6, 9]?
**A.** 1.28 ± 0.43 h

**Q.** And the plasma clearance [6, 9]?
**A.** 15.80 ± 3.0 L/h

**Q.** And the t1/2 [6, 9]?
**A.** 8.20 ± 6.14 h

**Q.** And the “AUC0-∞” value [6, 10]?
**A.** 1291.26 ± 426.68 µg/h/L

**Q.** What about the Cmax [6, 10] of the same compound?
**A.** 182.72 ± 67.44 ng/mL

**Q.** And the Tmax [6, 10]?
**A.** 1.58 ± 0.40 h

**Q.** What about the plasma clearance [6, 10] of the same compound?
**A.** 10.90 ± 5.00 L/h

**Q.** What about the t1/2 [6, 10] of the same compound?
**A.** 8.06 ± 2.82 h

**Q.** What about the “subjects experiencing the state of delirium (talkativeness, hyperactivity, unconsciousness)” value ([7]; 12 mg dose group) of the same compound?
**A.** Two subjects

**Q.** What about the “types and frequencies of adverse reactions versus low and moderate dose groups” value ([7]; high dose group (12 mg)) of the same compound?
**A.** more types and higher frequencies of adverse reactions

**Q.** And the “time after administration within which all adverse reactions disappeared” value ([7]; without special treatment)?
**A.** ≤ 12 h
